Assay results taken from the supplement of paper PMC10331698.
± gives the standard deviation of the averaged measurements.

Columns and labels:
Experiment in all cases: level (log10 ratio to DMSO vehicle control); higher = higher biomarker level / cell amount than vehicle control
Settings in all cases: in DMSO
[1] = compound: O=S(=O)(O)CCC(F)(F)C(F)(F)C(F)(F)C(F)(F)F [4:2 Fluorotelomer sulfonic acid]
Procedure: (§1)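 BioMAP Diversity Plus panel of 12 human primary cell co-culture systems (3C, 4H, LPS, SAg, BT, BF4T, BE3C, CASM3C, HDF3CGF, KF3CT, MyoF, Mphg). Compounds were added 1 h before stimulation and left for 24 h (MyoF 48 h; BT 72 h for soluble read-outs or 6 d for IgG). Biomarkers were read by ELISA, cytotoxicity by SRB, PBMC viability and proliferation by Alamar Blue. Each well value was divided by the mean of 8 DMSO control wells on the same plate and log10 transformed; duplicate blinded samples were tested at 4 concentrations.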

[2] = compound: O=P(O)(O)CCC(F)(F)C(F)(F)C(F)(F)C(F)(F)C(F)(F)C(F)(F)F [2-(Perfluorohexyl)ethylphosphonic acid]
Procedure: as §1

[3] = compound: OCC(F)(F)C(F)(F)C(F)(F)C(F)(F)C(F)(F)C(F)(F)F [6:1 Fluorotelomer alcohol]
Procedure: as §1

[4] = compound: OCCCCC(F)(F)C(F)(F)C(F)(F)C(F)(F)F [4:4 Fluorotelomer alcohol]
Procedure: as §1

[5] = compound: C=CC(=O)OCCC(F)(F)C(F)(F)C(F)(F)C(F)(F)C(F)(F)C(F)(F)C(F)(F)C(F)(F)F [8:2 Fluorotelomer acrylate]
Procedure: as §1

Perfluorooctanoic acid = compound: O=C(O)C(F)(F)C(F)(F)C(F)(F)C(F)(F)C(F)(F)C(F)(F)C(F)(F)F [Perfluorooctanoic acid]
Procedure: as §1

Row | Test System | level (log10) ([1]; 6700 nM) | level (log10) ([1]; 20000 nM) | level (log10) ([1]; 60000 nM) | level (log10) ([2]; 6700 nM) | level (log10) ([2]; 20000 nM) | level (log10) ([2]; 60000 nM) | level (log10) ([3]; 6700 nM) | level (log10) ([3]; 20000 nM) | level (log10) ([3]; 60000 nM) | level (log10) ([4]; 6700 nM) | level (log10) ([4]; 20000 nM) | level (log10) ([4]; 60000 nM) | level (log10) ([5]; 6700 nM) | level (log10) ([5]; 20000 nM) | level (log10) ([5]; 60000 nM) | level (log10) (Perfluorooctanoic acid; 6700 nM) | level (log10) (Perfluorooctanoic acid; 20000 nM) | level (log10) (Perfluorooctanoic acid; 60000 nM)
1 | LPS:CD62E/E-Selectin | 0.027 ± 0.028 | 0.027 ± 0.041 | 0.0285 ± 0.066 | -0.0005 ± 0.015 | -0.004 ± 0.011 | 0.0465 ± 0.012 | 0.001 ± 0.018 | -0.013 ± 0.011 | -0.014 ± 0.0071 | -0.0015 ± 0.033 | -0.0135 ± 0.028 | -0.012 ± 0.0099 | 0.002 ± 0.011 | 0 ± 0.011 | 0.019 ± 0.014 | 0.009 ± 0.017 | -0.01 ± 0.02 | 0.029 ± 0.016
2 | LPS:CD69 | -0.0435 ± 0.052 | -0.0565 ± 0.029 | -0.058 ± 0.028 | -0.026 ± 0.075 | 0.001 ± 0.051 | 0.0815 ± 0.029 | -0.017 ± 0.0042 | -0.0135 ± 0.0064 | -0.0085 ± 0.005 | -0.0335 ± 0.016 | -0.0135 ± 0.015 | -0.0135 ± 0.015 | 0.012 ± 0.054 | -0.044 ± 0.05 | -0.052 ± 0.061 | 0.0445 ± 0.096 | 0.0475 ± 0.046 | -0.025 ± 0.092
3 | LPS:CD106/VCAM-1 | -0.0065 ± 0.013 | -0.006 ± 0.027 | -0.0125 ± 0.059 | -0.021 ± 0.021 | -0.0185 ± 0.0021 | -0.011 ± 0.023 | -0.033 ± 0.023 | -0.041 ± 0.016 | -0.023 ± 0.02 | -0.001 ± 0.011 | 0.0045 ± 0.018 | 0.003 ± 0.02 | -0.029 ± 0.013 | -0.05 ± 0.013 | -0.053 ± 0.0099 | 0.0085 ± 0.0021 | -0.006 ± 0.013 | -0.0165 ± 0.0035
4 | LPS:CD141/Thrombomodulin | 0.0215 ± 0.039 | 0.0345 ± 0.044 | 0.0755 ± 0.032 | -0.004 ± 0.11 | -0.0055 ± 0.11 | 0.0315 ± 0.032 | -0.0225 ± 0.03 | -0.021 ± 0.051 | 0.002 ± 0.0057 | 0.0135 ± 0.032 | 0.0215 ± 0.0078 | 0.007 ± 0.0085 | -0.044 ± 0.04 | -0.085 ± 0.016 | -0.0925 ± 0.03 | 0.068 ± 0.076 | 0.0185 ± 0.077 | 0 ± 0.03
5 | LPS:CD142/Tissue Factor | -0.051 ± 0.014 | -0.0105 ± 0.016 | -0.0015 ± 0.016 | 0.0045 ± 0.1 | 0.054 ± 0.047 | 0.119 ± 0.052 | -0.0035 ± 0.03 | 0.0215 ± 0.011 | 0.0155 ± 0.016 | 0.003 ± 0.027 | 0.031 ± 0.027 | -0.0095 ± 0.023 | 0.0375 ± 0.0035 | 0.0245 ± 0.044 | 0.0085 ± 0.03 | 0.0445 ± 0.056 | 0.008 ± 0.089 | 0.042 ± 0.017
6 | LPS:CXCL8/IL-8 | -0.0015 ± 0.097 | 0.027 ± 0.054 | 0.111 ± 0.018 | -0.023 ± 0.024 | -0.0235 ± 0.0021 | 0.0375 ± 0.054 | 0.002 ± 0.011 | -0.007 ± 0.018 | 0.0235 ± 0.0021 | 0.0295 ± 0.005 | 0.0205 ± 0.033 | 0.027 ± 0.041 | -0.0055 ± 0.0092 | -0.036 ± 0.04 | -0.0085 ± 0.018 | 0.0155 ± 0.021 | 0.033 ± 0.014 | 0.146 ± 0.057
7 | LPS:IL-1alpha | -0.007 ± 0.035 | -0.001 ± 0.03 | 0.0035 ± 0.018 | 0.0055 ± 0.0092 | -0.026 ± 0.014 | -0.0195 ± 0.087 | -0.038 ± 0.03 | -0.015 ± 0.061 | -0.0105 ± 0.023 | -0.01 ± 0.04 | -0.021 ± 0.028 | 0.014 ± 0.048 | 0.021 ± 0.013 | 0.0315 ± 0.052 | 0.0315 ± 0.0078 | 0.0135 ± 0.0035 | -0.0205 ± 0.043 | -0.007 ± 0.017
8 | LPS:M-CSF | -0.0265 ± 0.049 | 0.017 ± 0.0071 | 0.0025 ± 0.005 | -0.0175 ± 0.074 | 0.0055 ± 0.043 | 0.0255 ± 0.019 | 0.009 ± 0.038 | 0.0085 ± 0.05 | 0.0125 ± 0.023 | 0.0085 ± 0.0078 | -0.001 ± 0.017 | 0.018 ± 0.0085 | 0.001 ± 0.0085 | -0.006 ± 0.023 | -0.03 ± 0.0014 | 0.0255 ± 0.054 | -0.016 ± 0.1 | 0.06 ± 0.078
9 | LPS:SRB | -0.0085 ± 0.0021 | -0.003 ± 0.0085 | -0.011 ± 0.018 | -0.003 ± 0.0057 | -0.006 ± 0.0028 | -0.023 ± 0.021 | -0.005 ± 0.0014 | -0.0105 ± 0.005 | -0.0005 ± 0.0092 | 0.02 ± 0.0057 | 0.022 ± 0.024 | 0.017 ± 0.033 | 0.0015 ± 0.0021 | -0.005 ± 0.0014 | 0.004 ± 0.0042 | -0.01 ± 0.011 | 0.0085 ± 0.012 | -0.0265 ± 0.0064
10 | LPS:sPGE2 | -0.035 ± 0.078 | 0.025 ± 0.064 | 0.026 ± 0.0028 | -0.0245 ± 0.013 | -0.0005 ± 0.019 | 0.0035 ± 0.025 | -0.0055 ± 0.028 | 0.004 ± 0.0099 | 0.005 ± 0.03 | 0.0035 ± 0.0092 | -0.015 ± 0.0099 | -0.015 ± 0.055 | -0.118 ± 0.005 | -0.102 ± 0.044 | -0.069 ± 0.03 | 0.0065 ± 0.016 | -0.067 ± 0.02 | -0.159 ± 0.064
11 | LPS:sTNF-alpha | -0.0105 ± 0.011 | -0.007 ± 0.0014 | -0.0065 ± 0.0035 | 0.008 ± 0.0085 | 0.0105 ± 0.026 | 0.007 ± 0.0042 | -0.0625 ± 0.071 | -0.046 ± 0.09 | -0.0115 ± 0.0092 | 0.0195 ± 0.11 | 0.0205 ± 0.12 | 0.0155 ± 0.14 | -0.0245 ± 0.025 | -0.029 ± 0.027 | -0.0175 ± 0.012 | 0.032 ± 0.0099 | 0.0305 ± 0.021 | 0.0085 ± 0.013
12 | SAg:CCL2/MCP-1 | 0.007 ± 0.0085 | 0.0185 ± 0.0035 | 0.0105 ± 0.013 | 0.0075 ± 0.0092 | -0.006 ± 0.016 | 0.041 | -0.002 ± 0.0057 | -0.0085 ± 0.005 | 0.0175 ± 0.025 | -0.009 ± 0.018 | -0.002 ± 0.0042 | -0.008 ± 0.027 | -0.0115 ± 0.00071 | -0.023 ± 0.013 | -0.0085 ± 0.036 | 0.0005 ± 0.0021 | 0.0025 ± 0.011 | 0.048 ± 0.0057
13 | SAg:CD38 | -0.0135 ± 0.028 | -0.0415 ± 0.019 | -0.0245 ± 0.005 | 0.018 | 0.0025 ± 0.016 | -0.0055 ± 0.011 | -0.0215 ± 0.088 | -0.0085 ± 0.12 | -0.018 ± 0.17 | -0.001 ± 0.028 | -0.0075 ± 0.018 | -0.0165 ± 0.023 | -0.001 ± 0.0085 | -0.003 ± 0.0071 | -0.004 ± 0.013 | -0.008 ± 0.0085 | -0.012 ± 0.023 | -0.0405 ± 0.0064
14 | SAg:CD40 | -0.006 ± 0.0071 | 0.0015 ± 0.019 | -0.0225 ± 0.039 | 0.007 ± 0.0028 | 0.0015 ± 0.00071 | -0.026 ± 0.0099 | -0.02 ± 0.023 | -0.0075 ± 0.0021 | -0.005 ± 0.033 | 0.01 ± 0.016 | 0.014 ± 0.0042 | 0.005 ± 0.0042 | -0.0085 ± 0.00071 | -0.0075 ± 0.0021 | -0.01 ± 0.017 | 0.002 ± 0.013 | -0.017 ± 0.014 | -0.0415 ± 0.012
